Measurements: the supplement of paper PMC11451515

System: SEM cells
Assay: cell viability relative to DMSO control; higher = less cytotoxic
Conditions: 48 h
In short: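 Before seeding, each leukemia line was adapted for at least four passages in each medium. NOMO1 or SEM cells (500 cells/well) and P12-Ichikawa cells (1000 cells/well) went into 1536-well plates at 5 μl, then received library compounds in DMSO by pin dosing across 11 threefold concentrations, 47 μM to 0.79 nM. Readout was CellTiter-Glo One luminescence after 48 h at 37°C, and viability is given as a per-plate percentage of DMSO wells, with cell-free wells as background.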

[1] = HPLM + 10% dialyzed FBS, 0.000781 µM
[2] = HPLM + 10% dialyzed FBS, 0.00234 µM
[3] = HPLM + 10% dialyzed FBS, 0.00702 µM
[4] = HPLM + 10% dialyzed FBS, 0.0211 µM
[5] = HPLM + 10% dialyzed FBS, 0.0632 µM
[6] = HPLM + 10% dialyzed FBS, 0.19 µM
[7] = HPLM + 10% dialyzed FBS, 0.569 µM
[8] = HPLM + 10% dialyzed FBS, 1.71 µM
[9] = HPLM + 10% dialyzed FBS, 5.12 µM
[10] = HPLM + 10% dialyzed FBS, 15.4 µM
[11] = HPLM + 10% dialyzed FBS, 46.1 µM
[12] = RPMI 5 mM glucose + 10% FBS, 0.000781 µM
[13] = RPMI 5 mM glucose + 10% FBS, 0.00234 µM
[14] = RPMI 5 mM glucose + 10% FBS, 0.00702 µM
[15] = RPMI 5 mM glucose + 10% FBS, 0.0211 µM
[16] = RPMI 5 mM glucose + 10% FBS, 0.0632 µM
[17] = RPMI 5 mM glucose + 10% FBS, 0.19 µM
[18] = RPMI 5 mM glucose + 10% FBS, 0.569 µM
[19] = RPMI 5 mM glucose + 10% FBS, 1.71 µM
[20] = RPMI 5 mM glucose + 10% FBS, 5.12 µM
[21] = RPMI 5 mM glucose + 10% FBS, 15.4 µM
[22] = RPMI 5 mM glucose + 10% FBS, 46.1 µM
[23] = RPMI 5 mM glucose + 10% dialyzed FBS, 0.000781 µM
[24] = RPMI 5 mM glucose + 10% dialyzed FBS, 0.00234 µM
[25] = RPMI 5 mM glucose + 10% dialyzed FBS, 0.00702 µM
[26] = RPMI 5 mM glucose + 10% dialyzed FBS, 0.0211 µM
[27] = RPMI 5 mM glucose + 10% dialyzed FBS, 0.0632 µM
[28] = RPMI 5 mM glucose + 10% dialyzed FBS, 0.19 µM
[29] = RPMI 5 mM glucose + 10% dialyzed FBS, 0.569 µM
[30] = RPMI 5 mM glucose + 10% dialyzed FBS, 1.71 µM
[31] = RPMI 5 mM glucose + 10% dialyzed FBS, 5.12 µM
[32] = RPMI 5 mM glucose + 10% dialyzed FBS, 15.4 µM
[33] = RPMI 5 mM glucose + 10% dialyzed FBS, 46.1 µM

Row | SMILES | cell viability [1] [%] | cell viability [2] [%] | cell viability [3] [%] | cell viability [4] [%] | cell viability [5] [%] | cell viability [6] [%] | cell viability [7] [%] | cell viability [8] [%] | cell viability [9] [%] | cell viability [10] [%] | cell viability [11] [%] | cell viability [12] [%] | cell viability [13] [%] | cell viability [14] [%] | cell viability [15] [%] | cell viability [16] [%] | cell viability [17] [%] | cell viability [18] [%] | cell viability [19] [%] | cell viability [20] [%] | cell viability [21] [%] | cell viability [22] [%] | cell viability [23] [%] | cell viability [24] [%] | cell viability [25] [%] | cell viability [26] [%] | cell viability [27] [%] | cell viability [28] [%] | cell viability [29] [%] | cell viability [30] [%] | cell viability [31] [%] | cell viability [32] [%] | cell viability [33] [%]
1 | CCOc1ccc(Nc2nc(-c3c(C)nc4ccccn34)cs2)cc1 | 98.8 | 105 | 111 | 89.9 | 38.5 | 22.3 | 20.4 | 21.1 | 20.1 | 23.5 | 22.9 | 114 | 107 | 112 | 94.8 | 46.8 | 14.5 | 15.6 | 13.3 | 15.7 | 14.3 | 10.9 | 116 | 94.7 | 96.5 | 110 | 91.1 | 26.8 | 24.3 | 20.7 | 19.1 | 19.7 | 18.8
2 | CCC[C@H](N[C@@H](C)C(=O)N1[C@H](C(=O)O)C[C@@H]2CCCC[C@@H]21)C(=O)OCC | 114 | 111 | 104 | 114 | 120 | 115 | 118 | 112 | 106 | 111 | 105 | 107 | 101 | 107 | 110 | 105 | 116 | 104 | 110 | 105 | 98.6 | 102 | 110 | 105 | 108 | 122 | 111 | 110 | 107 | 106 | 125 | 122 | 106
3 | CNC1[C@@H](O)C(O[C@@H]2C(O)C(O[C@H]3O[C@H]([C@@H](C)NC)CC[C@H]3N)[C@@H](N)C[C@H]2N)OC[C@]1(C)O (stereo partly specified) | 99.8 | 96.4 | 99.2 | 95.1 | 113 | 106 | 93.2 | 97.7 | 92.9 | 88.5 | 80.8 | 105 | 120 | 94.2 | 101 | 92.2 | 103 | 97.9 | 83.3 | 90.4 | 86.1 | 98 | 102 | 101 | 98.4 | 106 | 99.3 | 104 | 106 | 108 | 85.7 | 114 | 91.7
4 | C\C1=C\C(=O)C2=C(C=CC=C2)C1=O | 95.9 | 110 | 102 | 109 | 126 | 123 | 106 | 114 | 111 | 96.1 | 80.4 | 104 | 101 | 113 | 111 | 113 | 106 | 101 | 89.2 | 95.3 | 95.9 | 59.9 | 94.7 | 102 | 114 | 114 | 112 | 111 | 117 | 111 | 84.3 | 71.3 | 50.6
5 | CN(C)CCc1c[nH]c2ccc(C[C@H]3COC(=O)N3)cc12 | 72 | 89.4 | 97.7 | 95.1 | 99.3 | 108 | 96 | 88.2 | 72.9 | 29.7 | 7.45 | 78.3 | 85.5 | 89 | 97 | 90.9 | 88.7 | 88.2 | 73.8 | 47.8 | 13.3 | 5.94 | 88.8 | 94 | 89.5 | 99.8 | 95.7 | 96.3 | 93.7 | 80.8 | 75.6 | 26 | 7.13
6 | N[S+](=O)([O-])c1cc(Cl)c(Cl)c([S+](N)(=O)[O-])c1 | 108 | 95.8 | 108 | 109 | 101 | 90.5 | 106 | 104 | 111 | 39.1 | 88.9 | 85.2 | 97 | 111 | 97.7 | 119 | 112 | 116 | 98.2 | 116 | 35.5 | 84.6 | 102 | 86 | 98.8 | 101 | 106 | 97.9 | 99.5 | 105 | 107 | 35.6 | 87.1
7 | CC(C)(C)C(=O)OCOP(=O)(COCCn1cnc2c(N)ncnc21)OCOC(=O)C(C)(C)C | 84.1 | 112 | 104 | 101 | 71.9 | 51 | 68.1 | 38.1 | 25.6 | 14.1 | 7.08 | 108 | 101 | 108 | 88 | 61.7 | 42.7 | 51.4 | 26.5 | 13 | 7.59 | 2.97 | 86.6 | 95.4 | 95.3 | 85.1 | 48.5 | 39.8 | 42.2 | 23.2 | 13 | 10.9 | 3.51
8 | C1CCC(C(CC2CCCCN2)C2CCCCC2)CC1 (stereo unspecified) | 82.6 | 92.2 | 94.9 | 98.3 | 104 | 110 | 93.5 | 96.9 | 118 | 54.1 | 7.7 | 94.4 | 122 | 93 | 113 | 116 | 117 | 110 | 112 | 111 | 45.1 | 19.6 | 85.7 | 93.9 | 91.7 | 85.5 | 100 | 86.6 | 96.8 | 110 | 89.9 | 37.7 | 34
9 | ClC1=CC(=CC=C1)N2CCN(CCCN3\N=C4\C=C/C=C\N4C3=O)CC2 | 79.3 | 107 | 107 | 112 | 121 | 130 | 127 | 131 | 140 | 131 | 145 | 117 | 126 | 123 | 138 | 140 | 138 | 146 | 157 | 150 | 165 | 127 |  |  |  |  |  |  |  |  |  |  | 
10 | CCOC(=O)[C@H](CCc1ccccc1)N[C@@H](C)C(=O)N1CCC[C@H]1C(=O)O | 107 | 110 | 102 | 97.3 | 119 | 123 | 107 | 115 | 113 | 112 | 113 | 106 | 112 | 104 | 109 | 106 | 112 | 96.6 | 94.5 | 113 | 120 | 94.8 | 119 | 105 | 108 | 109 | 111 | 103 | 94.4 | 101 | 103 | 99.2 | 98.5
11 | CCOc1cc(N)c(Cl)cc1C(=O)NCC1CN(Cc2ccc(F)cc2)CCO1 (stereo unspecified) | 85.4 | 110 | 104 | 100 | 109 | 112 | 128 | 114 | 118 | 119 | 132 | 99.8 | 113 | 107 | 116 | 114 | 114 | 95.5 | 115 | 109 | 94.7 | 90.3 | 113 | 110 | 100 | 109 | 119 | 122 | 112 | 115 | 105 | 104 | 92.5
12 | Cc1ncc(OC[C@@]2(c3cccc(F)c3)C[C@H]2C(=O)Nc2ccc(F)cn2)c(C)n1 | 75.3 | 84.5 | 97.6 | 96 | 95.3 | 91.7 | 105 | 96 | 98.3 | 98.7 | 78.3 | 113 | 111 | 102 | 104 | 103 | 133 | 136 | 51.1 | 97.3 | 88.4 | 104 | 85.3 | 107 | 98.1 | 90.8 | 100 | 104 | 108 | 118 | 122 | 108 | 82.6
13 | CN(C)C(=O)c1ccc([S+](=O)([O-])c2ccc(NC(=O)[C@@](C)(O)C(F)(F)F)c(Cl)c2)cc1 | 98.1 | 105 | 104 | 112 | 110 | 104 | 129 | 120 | 118 | 116 | 80 | 95.3 | 122 | 110 | 109 | 124 | 108 | 112 | 123 | 120 | 24.3 | 4.66 | 99.3 | 98.8 | 108 | 102 | 107 | 88 | 103 | 111 | 111 | 72.8 | 20.9
14 | CCN(CC)CCCCNc1nc2cc(Cl)c(Cl)cc2nc1-c1ccc(-c2cccs2)s1 | 83.7 | 110 | 27.8 | 121 | 110 | 102 | 115 | 114 | 107 | 124 | 8.47 | 93.7 | 94.9 | 8.03 | 101 | 96.8 | 102 | 114 | 98.9 | 107 | 93.9 | 5.71 | 106 | 121 | 26.4 | 130 | 118 | 126 | 116 | 116 | 126 | 131 | 8.47
